In brackets after ≈: the same amount, converted by molar mass.
Legend:
Aphidius rhopalosiphi = assay: LR50; higher = less toxic; details: acute; duration: 48 hours; mortality
Daphnia magna = details: chronic/long-term; duration: 21 days; reproduction
Folsomia candida = details: chronic/long-term; duration: 28 days; reproduction
Lycopersicon sp. = details: not reported; seedling emergence
Canidae = details: oral, Dog Other, body weight
Oncorhynchus mykiss = details: acute; duration: 96 hours; mortality
Pimephales promelas = details: chronic/long-term; duration: 301 days; other
Apis mellifera = details: acute; duration: 48 hours; dermal; mortality
Oryctolagus sp. = details: reproduction developmental; body weight
Bibionidae = details: chronic/long-term; duration: 28 days; development
Rattus norvegicus = details: body weight
Neomysis kadiakensis = details: chronic/long-term; duration: 35 days; reproduction
Mus musculus = details: chronic; duration: 78 weeks; body weight
Cyprinodon variegatus = details: acute; duration: 96 hours; mortality

Q: For `CC(C)(C)c1ccc(CSc2cnn(C(C)(C)C)c(=O)c2Cl)cc1` [Pyridaben], which LR50 (Aphidius rhopalosiphi) is on record?
A: 0.24 g/ha

Q: What about the LC50 (Colinus virginianus; acute, oral, diet, mortality) of the same molecule?
A: > 4300 mg/kg-day

Q: And the LD50 (Colinus virginianus; acute, oral, mortality)?
A: > 2250 mg/kg-day

Q: What about the NOEC (Colinus virginianus; reproduction developmental) of the same molecule?
A: 130 mg/kg-day

Q: What about the NOEC (Daphnia magna) of the same molecule?
A: 8.6e-05 mg/L

Q: What about the NOEC (Folsomia candida) of the same molecule?
A: 3.28 mg/kg

Q: What about the LEL (Lycopersicon sp.) of the same molecule?
A: 560 g/ha

Q: And the NOAEL (Canidae; chronic, duration: 1 years)?
A: 1 mg/kg-day

Q: What about the NOAEL (Canidae; subchronic, duration: 3 months) of the same molecule?
A: 1 mg/kg-day

Q: And the LC50 (Oncorhynchus mykiss)?
A: 0.73 ng/mL (≈ 0.002 µM)

Q: And the NOEC (Pimephales promelas)?
A: 0.00028 mg/L

Q: And the LD50 (Apis mellifera)?
A: > 0.024 µg/piece

Q: And the LD50 (Anas platyrhynchos; acute, oral, unspecified, mortality)?
A: > 2500 mg/kg-day

Q: What about the NOEC (Anas platyrhynchos; reproductive) of the same molecule?
A: 10 mg/kg-day

Q: What about the NOEC (Anas platyrhynchos; short-term, oral, feed, mortality) of the same molecule?
A: 659 mg/kg-day

Q: What about the NOAEL (Oryctolagus sp.) of the same molecule?
A: 5 mg/kg-day

Q: And the NOEC (Bibionidae)?
A: 0.0051 mg/L

Q: What about the NOEC (Rattus norvegicus; chronic) of the same molecule?
A: 2.37 mg/kg-day

Q: What about the NOAEL (Rattus norvegicus; chronic, duration: 2 years) of the same molecule?
A: 1.1 mg/kg-day

Q: What about the NOAEL (Rattus norvegicus; reproduction developmental) of the same molecule?
A: 4.7 mg/kg-day

Q: What about the NOEC (Neomysis kadiakensis) of the same molecule?
A: 4.7e-05 mg/L

Q: And the NOAEL (Mus musculus)?
A: 0.81 mg/kg-day

Q: And the LC50 (Tagia sp.; acute, duration: 14 days, mortality)?
A: > 38 mg/kg

Q: What about the NOEC (Tagia sp.; chronic/long-term, duration: 56 days, reproduction) of the same molecule?
A: 0.29 mg/kg

Q: What about the LC50 (Cyprinodon variegatus) of the same molecule?
A: 0.017 mg/L (≈ 0.0466 µM)

Source: EPA's ToxValDB 9.5 (doi:10.2903/j.efsa.2010.1632)
